According to patent publication US10479786B2, “Protein kinase inhibitors” (Princeton Drug Discovery Inc, priority 2016, dated 2019):

How the values were obtained:
HCK = target: T1, HCK (Homo sapiens, UniProt P08631); test: Off-chip Mobility Shift Assay, kinase inhibition; type: biochemical
T1 construct: purchased Carna Biosciences, Inc

PDGFRα = target: T2, PDGFRα (Homo sapiens, UniProt P16234); test: Off-chip Mobility Shift Assay, kinase inhibition; type: biochemical
T2 construct: purchased Carna Biosciences, Inc

PDGFRβ = target: T3, PDGFRβ (Homo sapiens, UniProt P09619); test: Off-chip Mobility Shift Assay, kinase inhibition; type: biochemical
T3 construct: purchased Carna Biosciences, Inc

ARG = target: T4, ARG (Homo sapiens, UniProt P42684); test: Off-chip Mobility Shift Assay, kinase inhibition; type: biochemical
T4 construct: purchased Carna Biosciences, Inc

FGR = target: T5, FGR (Homo sapiens, UniProt P09769); test: Off-chip Mobility Shift Assay, kinase inhibition; type: biochemical
T5 construct: purchased Carna Biosciences, Inc

LYNa = target: T6, LYNa (Homo sapiens, UniProt P07948); test: Off-chip Mobility Shift Assay, kinase inhibition; type: biochemical
T6 construct: purchased Carna Biosciences, Inc

[1] = test system: battery of selected protein kinases; test: In vitro screen of a battery of selected protein kinases (summary statement); type: biochemical; details: BTK, BMX, ABL, ABL(E255K), SRC, ACK, ARG, BLK, DDR2, EPHA, FGR, FMS, FRK, FYN, HCK, LCK, LYN, PDGFRα, PDGFRβ, YES, PIK3CA/PIK3R1, among others
[2] = Pharmacokinetics in Sprague-Dawley rats, 2-in-1 dosing; type: in vivo; details: rat; for V: intravenous 1 mg/kg
Procedure: Sprague-Dawley rats (approximate weight 275-300 g, N=3) were dosed intravenously at 5 mL/kg and orally at 10 mL/kg with the above dosing solutions. Blood samples were collected into tubes containing EDTA as the anticoagulant at 0, 0.25 (intravenous only), 0.5, 1, 2, 4, 8, 10, and 24 h post-dosing, and plasma samples were prepared by centrifugation. The plasma samples were mixed with 3× volumes of acetonitrile containing 100 nM reserpine as the internal standard, and centrifuged at 4000 RPM for 15 min. The supernatants were injected for LC/MS analysis which were carried out on a AB Sciex 4000 Q Trap LC/MS/MS system coupled with Shimadzu Prominence UFLCXR 20 series (including a CBM-20A controller, two LC-20ADXR solvent delivery units, SIL-20AC HT autosampler, CTO-20A column oven, and a SPD-20A UV detector). The samples were separated on a Phenomenex Columbus column (C18, 4 μm, 50×2 mm) eluted with two solvent systems: 2 mM ammonium acetate in water containing 0.1% formic acid (A) and methanol (B) at a linear gradient starting with 25% B. Electrospray ionization in positive mode was used to acquire LC/MS/MS data.

DDR2 = target: T7, DDR2 (Homo sapiens, UniProt Q16832); test: Off-chip Mobility Shift Assay, kinase inhibition; type: biochemical
T7 construct: purchased Carna Biosciences, Inc
T7 sequence (Q16832 22-855): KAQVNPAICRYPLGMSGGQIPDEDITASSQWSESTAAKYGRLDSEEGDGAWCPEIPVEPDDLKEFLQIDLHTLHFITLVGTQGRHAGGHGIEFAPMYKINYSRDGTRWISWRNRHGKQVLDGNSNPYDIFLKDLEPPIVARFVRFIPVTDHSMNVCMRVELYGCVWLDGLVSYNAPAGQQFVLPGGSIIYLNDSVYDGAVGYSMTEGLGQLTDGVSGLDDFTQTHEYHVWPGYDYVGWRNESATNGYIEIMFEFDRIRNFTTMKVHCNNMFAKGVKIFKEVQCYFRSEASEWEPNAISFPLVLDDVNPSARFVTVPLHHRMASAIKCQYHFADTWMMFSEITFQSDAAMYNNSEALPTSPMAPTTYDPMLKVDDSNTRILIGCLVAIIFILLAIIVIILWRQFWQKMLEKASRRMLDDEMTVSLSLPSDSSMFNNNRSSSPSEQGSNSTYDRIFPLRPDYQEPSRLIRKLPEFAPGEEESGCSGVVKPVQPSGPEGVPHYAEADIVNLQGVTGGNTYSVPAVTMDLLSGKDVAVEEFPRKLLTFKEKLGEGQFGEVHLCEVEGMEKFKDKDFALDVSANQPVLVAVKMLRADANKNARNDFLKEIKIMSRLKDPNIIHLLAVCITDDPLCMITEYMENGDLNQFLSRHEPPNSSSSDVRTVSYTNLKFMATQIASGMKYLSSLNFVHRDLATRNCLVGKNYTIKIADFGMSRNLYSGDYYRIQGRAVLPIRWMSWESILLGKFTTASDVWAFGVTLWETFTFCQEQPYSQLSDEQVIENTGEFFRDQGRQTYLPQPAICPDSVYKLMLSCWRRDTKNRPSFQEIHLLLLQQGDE

Mino = test: Cell inhibition assay (PrestoBlue, 48 h); type: cell-based; details: Homo sapiens, Mino cells, read-out: IC50, inhibition of growth
SU-DHL-4 = test: Cell inhibition assay (PrestoBlue, 48 h); type: cell-based; details: Homo sapiens, SU-DHL-4, 48 h, SU-DHL-4 diffuse large B-cell lymphoma cells, read-out: IC50, inhibition of growth
[3] = Table 2, co-dosed with compound IV
[4] = Table 3, co-dosed with compound X

T2 sequence (P16234 24-1089): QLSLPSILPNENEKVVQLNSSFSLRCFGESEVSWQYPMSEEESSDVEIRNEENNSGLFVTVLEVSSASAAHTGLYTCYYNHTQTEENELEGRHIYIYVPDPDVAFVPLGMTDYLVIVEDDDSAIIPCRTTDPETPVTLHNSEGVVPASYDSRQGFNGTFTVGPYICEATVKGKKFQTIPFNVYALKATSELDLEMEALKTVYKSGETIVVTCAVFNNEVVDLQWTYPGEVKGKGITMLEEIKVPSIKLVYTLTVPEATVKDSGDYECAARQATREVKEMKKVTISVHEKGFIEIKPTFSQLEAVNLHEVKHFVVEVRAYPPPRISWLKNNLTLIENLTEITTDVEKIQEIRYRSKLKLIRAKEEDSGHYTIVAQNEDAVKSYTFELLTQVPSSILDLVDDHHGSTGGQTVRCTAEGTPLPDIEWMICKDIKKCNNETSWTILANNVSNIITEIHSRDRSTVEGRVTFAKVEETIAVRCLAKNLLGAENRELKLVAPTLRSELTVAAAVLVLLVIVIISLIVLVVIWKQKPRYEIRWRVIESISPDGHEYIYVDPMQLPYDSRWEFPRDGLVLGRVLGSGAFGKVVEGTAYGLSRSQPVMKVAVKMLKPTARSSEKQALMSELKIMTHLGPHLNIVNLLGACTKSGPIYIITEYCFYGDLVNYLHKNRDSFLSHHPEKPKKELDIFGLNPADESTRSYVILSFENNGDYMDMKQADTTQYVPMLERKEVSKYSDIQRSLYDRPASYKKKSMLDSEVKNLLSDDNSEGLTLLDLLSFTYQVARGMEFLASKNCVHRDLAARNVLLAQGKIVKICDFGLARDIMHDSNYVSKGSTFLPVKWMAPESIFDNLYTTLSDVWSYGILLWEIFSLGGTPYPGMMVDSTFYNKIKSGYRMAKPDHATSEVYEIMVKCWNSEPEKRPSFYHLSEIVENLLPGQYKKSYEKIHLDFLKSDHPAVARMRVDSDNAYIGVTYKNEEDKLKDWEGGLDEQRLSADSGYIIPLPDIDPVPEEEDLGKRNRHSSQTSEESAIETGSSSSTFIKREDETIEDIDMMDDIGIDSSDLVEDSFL
T5 sequence (P09769 whole entry): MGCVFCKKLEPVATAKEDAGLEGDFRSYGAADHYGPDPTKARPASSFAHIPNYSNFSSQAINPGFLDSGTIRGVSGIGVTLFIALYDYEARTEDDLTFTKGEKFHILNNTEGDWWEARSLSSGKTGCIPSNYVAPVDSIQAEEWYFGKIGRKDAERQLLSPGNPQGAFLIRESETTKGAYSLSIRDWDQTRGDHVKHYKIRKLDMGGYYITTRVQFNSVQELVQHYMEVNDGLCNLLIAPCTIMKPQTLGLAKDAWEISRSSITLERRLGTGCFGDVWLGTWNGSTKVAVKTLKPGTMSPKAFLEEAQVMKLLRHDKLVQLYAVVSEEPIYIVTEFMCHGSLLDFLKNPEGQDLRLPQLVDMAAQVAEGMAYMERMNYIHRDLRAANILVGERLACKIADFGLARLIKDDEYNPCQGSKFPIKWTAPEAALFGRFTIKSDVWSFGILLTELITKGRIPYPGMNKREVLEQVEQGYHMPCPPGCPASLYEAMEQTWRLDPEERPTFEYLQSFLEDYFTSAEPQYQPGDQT
T3 sequence (P09619 33-1106): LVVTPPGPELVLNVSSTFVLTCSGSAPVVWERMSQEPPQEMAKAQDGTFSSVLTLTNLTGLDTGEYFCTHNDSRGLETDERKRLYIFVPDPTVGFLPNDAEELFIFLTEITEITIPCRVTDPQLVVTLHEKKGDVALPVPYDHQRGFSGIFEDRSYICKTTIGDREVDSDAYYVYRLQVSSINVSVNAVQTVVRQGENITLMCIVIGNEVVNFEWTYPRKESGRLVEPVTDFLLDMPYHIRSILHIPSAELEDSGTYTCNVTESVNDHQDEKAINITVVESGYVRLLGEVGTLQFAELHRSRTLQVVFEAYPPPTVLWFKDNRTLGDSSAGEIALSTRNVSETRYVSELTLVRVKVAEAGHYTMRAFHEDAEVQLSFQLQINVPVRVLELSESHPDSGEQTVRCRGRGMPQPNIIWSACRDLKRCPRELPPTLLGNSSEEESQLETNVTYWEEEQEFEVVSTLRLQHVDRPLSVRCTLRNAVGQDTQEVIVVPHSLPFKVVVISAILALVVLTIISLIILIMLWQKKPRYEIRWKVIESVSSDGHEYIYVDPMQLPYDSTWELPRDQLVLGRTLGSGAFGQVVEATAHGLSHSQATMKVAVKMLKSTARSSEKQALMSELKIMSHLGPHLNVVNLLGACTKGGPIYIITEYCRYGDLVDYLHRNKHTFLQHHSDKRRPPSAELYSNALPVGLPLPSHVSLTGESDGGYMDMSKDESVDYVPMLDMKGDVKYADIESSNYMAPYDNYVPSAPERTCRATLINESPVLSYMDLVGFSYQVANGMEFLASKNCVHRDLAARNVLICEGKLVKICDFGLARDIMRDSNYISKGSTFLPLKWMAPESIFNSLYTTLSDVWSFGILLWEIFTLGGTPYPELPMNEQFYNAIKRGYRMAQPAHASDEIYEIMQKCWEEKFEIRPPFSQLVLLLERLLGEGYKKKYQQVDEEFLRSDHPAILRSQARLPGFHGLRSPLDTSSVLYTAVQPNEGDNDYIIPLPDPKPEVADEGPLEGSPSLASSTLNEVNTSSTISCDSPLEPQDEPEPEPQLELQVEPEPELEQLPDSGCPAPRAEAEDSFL
T6 sequence (P07948 whole entry): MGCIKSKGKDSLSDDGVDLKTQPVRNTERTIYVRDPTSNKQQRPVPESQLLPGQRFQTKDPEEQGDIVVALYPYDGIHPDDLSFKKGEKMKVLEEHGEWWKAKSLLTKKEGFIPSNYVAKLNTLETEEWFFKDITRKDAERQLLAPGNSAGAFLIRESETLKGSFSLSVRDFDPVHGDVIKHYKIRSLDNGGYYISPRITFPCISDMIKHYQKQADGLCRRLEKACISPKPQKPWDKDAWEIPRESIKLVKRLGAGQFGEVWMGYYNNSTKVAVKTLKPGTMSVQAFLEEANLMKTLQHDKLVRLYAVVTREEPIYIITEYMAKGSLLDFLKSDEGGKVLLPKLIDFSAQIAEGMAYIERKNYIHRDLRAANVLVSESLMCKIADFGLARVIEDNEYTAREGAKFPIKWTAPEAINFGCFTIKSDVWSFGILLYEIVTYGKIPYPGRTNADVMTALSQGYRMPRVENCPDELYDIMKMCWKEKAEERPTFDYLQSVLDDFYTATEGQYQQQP
T1 sequence (P08631 whole entry): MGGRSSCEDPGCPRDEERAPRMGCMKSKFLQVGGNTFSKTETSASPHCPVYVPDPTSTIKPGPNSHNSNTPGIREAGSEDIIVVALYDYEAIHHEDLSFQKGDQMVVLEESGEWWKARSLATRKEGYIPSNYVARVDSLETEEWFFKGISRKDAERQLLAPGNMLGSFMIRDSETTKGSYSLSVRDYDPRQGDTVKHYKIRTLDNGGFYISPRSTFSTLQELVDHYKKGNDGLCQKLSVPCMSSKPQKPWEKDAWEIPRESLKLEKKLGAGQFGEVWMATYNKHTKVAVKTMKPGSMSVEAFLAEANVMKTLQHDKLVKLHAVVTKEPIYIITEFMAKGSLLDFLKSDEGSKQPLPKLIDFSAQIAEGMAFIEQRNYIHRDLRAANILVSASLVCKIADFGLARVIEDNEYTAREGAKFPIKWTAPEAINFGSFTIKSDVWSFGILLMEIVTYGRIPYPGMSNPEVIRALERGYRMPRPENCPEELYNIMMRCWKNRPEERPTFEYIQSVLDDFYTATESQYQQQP
T4 sequence (P42684 whole entry): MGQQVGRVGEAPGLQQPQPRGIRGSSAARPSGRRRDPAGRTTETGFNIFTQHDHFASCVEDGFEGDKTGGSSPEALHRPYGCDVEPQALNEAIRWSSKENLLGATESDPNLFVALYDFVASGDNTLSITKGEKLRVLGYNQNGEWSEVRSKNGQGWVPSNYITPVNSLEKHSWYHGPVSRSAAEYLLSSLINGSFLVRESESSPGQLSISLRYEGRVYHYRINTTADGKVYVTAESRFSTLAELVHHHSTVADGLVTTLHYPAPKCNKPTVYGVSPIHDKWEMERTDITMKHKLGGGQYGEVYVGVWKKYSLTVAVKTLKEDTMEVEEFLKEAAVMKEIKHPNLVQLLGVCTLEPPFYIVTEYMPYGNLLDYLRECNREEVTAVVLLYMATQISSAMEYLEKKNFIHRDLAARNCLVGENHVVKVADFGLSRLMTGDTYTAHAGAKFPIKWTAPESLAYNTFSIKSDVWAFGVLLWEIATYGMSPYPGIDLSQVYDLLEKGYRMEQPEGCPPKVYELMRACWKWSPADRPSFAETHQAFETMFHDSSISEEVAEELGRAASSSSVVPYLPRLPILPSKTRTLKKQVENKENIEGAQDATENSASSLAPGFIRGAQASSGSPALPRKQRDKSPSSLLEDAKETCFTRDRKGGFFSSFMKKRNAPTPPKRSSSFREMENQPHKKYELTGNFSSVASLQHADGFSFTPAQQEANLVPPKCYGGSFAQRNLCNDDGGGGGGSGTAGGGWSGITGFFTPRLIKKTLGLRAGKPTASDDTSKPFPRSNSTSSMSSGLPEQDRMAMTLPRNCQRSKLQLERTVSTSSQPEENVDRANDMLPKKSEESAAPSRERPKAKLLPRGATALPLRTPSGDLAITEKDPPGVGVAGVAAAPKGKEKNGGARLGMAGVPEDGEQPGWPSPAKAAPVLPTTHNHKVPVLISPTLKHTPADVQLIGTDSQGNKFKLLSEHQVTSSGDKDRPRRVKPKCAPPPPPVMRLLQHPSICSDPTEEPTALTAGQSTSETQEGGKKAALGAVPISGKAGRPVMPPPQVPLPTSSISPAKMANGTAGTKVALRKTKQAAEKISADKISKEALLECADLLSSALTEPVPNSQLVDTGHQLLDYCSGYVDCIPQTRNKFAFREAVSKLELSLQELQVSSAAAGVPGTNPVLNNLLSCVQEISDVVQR

For `[2H]c1cc(C)c(NC(=O)c2cnc(Nc3cc(N4CCN(CCO)CC4)nc(C)n3)s2)c(Cl)c1` [Compound III], the inhibition at 0.01 µM (HCK) was greater than 50%, the inhibition at 0.01 µM (PDGFRα) was greater than 50% and the inhibition at 0.01 µM (PDGFRβ) was greater than 50%. For the same molecule, the inhibition at 0.01 µM (ARG) was greater than 50%, the inhibition at 0.01 µM (FGR) was greater than 50% and the inhibition at 0.01 µM (LYNa) was greater than 50%. For the same molecule, the “activity to inhibit kinases” value [1] was “potent activity”, the V [2, 3] was 3 ± 0 L/kg and the V [2, 4] was 3 ± 0 L/kg. For the same molecule, the inhibition at 0.01 µM (DDR2) was greater than 50%.
For `Cc1nc(Nc2ncc(C(=O)Nc3c(C)cccc3Cl)s2)cc(N2CCCC2)n1` [Compound XIV, N-(2-chloro-6-methylphenyl)-2-[[2-methyl-6-(pyrrolidin-1-yl)pyrimidin-4-yl]amino]thiazole-5-carboxamide], the IC50 (Mino) was less than 50 nM and the IC50 (SU-DHL-4) was less than 20 nM.
With `Cc1nc(Nc2ncc(C(=O)Nc3c(C)cccc3Cl)s2)cc(N2CCN(CCO)CC2)n1` [Dasatinib, reference compound] the “F, percent oral bioavailability” value ([2]; PO 5 mg/kg versus intravenous 1 mg/kg, AUCinf dose normalized, Table 3) was 3.9±1%, the V [2, 3] was 3 ± 0 L/kg and the V [2, 4] was 2 ± 0 L/kg.
